Laboratory results as given in the supplement of paper PMC4314810.
± gives the standard deviation of the averaged measurements.

tested on: MCF7; test: HRG-induced Akt activation (dPAkt = log2 pAkt/Akt HRG-stimulated minus log2 pAkt/Akt basal) (log2 ratio difference); higher = stronger HRG-induced Akt(T308) phosphorylation; conditions: miRNA mimic concentration 10 nM; time after transfection 72 h; heregulin 10 ng/ml; stimulation time 1 h
In short: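 MCF7 cells ([…], 96-well plates) were transfected with a library of 879 miRNA mimics at 10 nM final using Lipofectamine RNAiMax, in two biological replicates. After 72 h, cells were stimulated with 10 ng/ml heregulin-beta1 for 1 h or left unstimulated. They were fixed with 4% PFA, and phospho-Akt(T308) and total Akt were read by In-Cell Western on an Odyssey. Signals were corrected for column-wise fixation decay, and HRG-induced Akt activation is log2(pAkt/Akt) stimulated minus unstimulated, averaged over replicates.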

Sequence	HRG-induced Akt activation (log2)
UAGGCAGUGUCAUUAGCUGAUUG	1.69 ± 0.15
AGGGACGGGACGCGGUGCAGUG	1.15 ± 0.12
CAACUAGACUGUGAGCUUCUAG	2.04 ± 0.049
ACUCGGCGUGGCGUCGGUCGUG	2.34 ± 0.17
AACACACCUGGUUAACCUCUUU	1.23 ± 0.54
UAACAGUCUACAGCCAUGGUCG	1.37 ± 0.26
CUGGUUUCACAUGGUGGCUUAG	2.33 ± 0.15
ACAGUAGAGGGAGGAAUCGCAG	1.42 ± 0.22
AGGCACCAGCCAGGCAUUGCUCAGC	1.51 ± 0.2
AAUGCACCCGGGCAAGGAUUCU	1.91 ± 0.056
UUAGGGCCCUGGCUCCAUCUCC	1.954 ± 0.014
AUCGUGCAUCCUUUUAGAGUGU	1.47 ± 0.099
CUACAAAGGGAAGCCCUUUC	1.62 ± 0.21
UUGGGAUCAUUUUGCAUCCAUA	1.13 ± 0.3
CAGUGCAAUGUUAAAAGGGCAU	0.895 ± 0.16
AGUGUGGCUUUCUUAGAGC	0.799 ± 1.1
CUGGCCCUCUCUGCCCUUCCGU	1.18 ± 0.4
UGUGCAAAUCCAUGCAAAACUGA	0.657 ± 0.2
CAAGCUCGUGUCUGUGGGUCCG	0.995 ± 0.35
UGCUUCCUUUCAGAGGGU	1.61 ± 0.34
GUCCCUGUUCAGGCGCCA	1.73 ± 0.15
CGGCAACAAGAAACUGCCUGAG	1.46 ± 0.68
CAUUGCACUUGUCUCGGUCUGA	1.74 ± 0.8
GGCAGGUUCUCACCCUCUCUAGG	2.11 ± 0.13
CACCAGGCAUUGUGGUCUCC	2.13 ± 0.28
GCGAGGACCCCUCGGGGUCUGAC	1.05 ± 0.48
AGCUACAUUGUCUGCUGGGUUUC	1.72 ± 0.17

Sequence	HRG-induced Akt activation (log2)
GCUGGGCAGGGCUUCUGAGCUCCUU	1.68 ± 0.082
ACCAUCGACCGUUGAUUGUACC	1.35 ± 0.22
GCAGGAACUUGUGAGUCUCCU	1.8 ± 0.32
UAGCACCAUUUGAAAUCGGUUA	1.17 ± 0.57
AUGAUCCAGGAACCUGCCUCU	2.49 ± 0.056
UAGCAGCACAUAAUGGUUUGUG	1.98 ± 0.18
AUCAUGAUGGGCUCCUCGGUGU	1.41 ± 0.22
UUGUGUCAAUAUGCGAUGAUGU	1.768 ± 0.00038
UCUUGGAGUAGGUCAUUGGGUGG	1.56 ± 0.046
UUUAGAGACGGGGUCUUGCUCU	1.54 ± 0.51
UGAUUGUAGCCUUUUGGAGUAGA	1.96 ± 0.18
AAAAGUGCUUACAGUGCAGGUAG	1.2 ± 0.069
GGAGGGGUCCCGCACUGGGAGG	1.82 ± 0.057
CUCCUAUAUGAUGCCUUUCUUC	1.72 ± 0.36
UAGCAGCACAGAAAUAUUGGC	1.42 ± 0.76
AAAUUAUUGUACAUCGGAUGAG	1.48 ± 0.61
UCAGUGCAUGACAGAACUUGG	1.09 ± 0.14
GACCUGGACAUGUUUGUGCCCAGU	1.71 ± 0.12
ACCUGGCAUACAAUGUAGAUUU	1.81 ± 0.29
CACAAGGUAUUGGUAUUACCU	1.79 ± 0.25
AUUGACACUUCUGUGAGUAGA	1.55 ± 0.046
GUCAGCGGAGGAAAAGAAACU	1.47 ± 0.037
UCAGUGCAUCACAGAACUUUGU	0.53 ± 0.045
CCUCUAGAUGGAAGCACUGUCU	1.41 ± 0.026
AAACCGUUACCAUUACUGAGUU	1.22 ± 0.2
CUGUGCGUGUGACAGCGGCUGA	0.692 ± 0.043
